Laboratory results: the supplement of paper PMC12205070

Legend:
Test in all cases: normalised number of viable cells after treatment (fraction of control); higher = more viable cells (less drug effect)
P8 Relapse = system: P8 Relapse (T-ALL xenograft cells from relapse)
Experimental: (§1)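 T-ALL PDX-derived cells (initial diagnosis or relapse samples of individual patients) co-cultured on hTERT-immortalized bone marrow MSCs in 384-well plates were treated with Cytarabine, Venetoclax, S-63845, A1331852 or FX1 (0.1 nM to 10,000 nM) for 72 h.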

P8 Initial = system: P8 Initial (T-ALL xenograft cells from diagnosis)
Experimental: as §1

P2 Initial = system: P2 Initial (T-ALL xenograft cells from diagnosis)
Experimental: as §1

P12 Initial = system: P12 Initial (T-ALL xenograft cells from diagnosis)
Experimental: as §1

P6 Relapse = system: P6 Relapse (T-ALL xenograft cells from relapse)
Experimental: as §1

P10 Initial = system: P10 Initial (T-ALL xenograft cells from diagnosis)
Experimental: as §1

P10 Relapse = system: P10 Relapse (T-ALL xenograft cells from relapse)
Experimental: as §1

P6 Initial = system: P6 Initial (T-ALL xenograft cells from diagnosis)
Experimental: as §1

P1 Initial = system: P1 Initial (T-ALL xenograft cells from diagnosis)
Experimental: as §1

P2 Relapse = system: P2 Relapse (T-ALL xenograft cells from relapse)
Experimental: as §1

P12 Relapse = system: P12 Relapse (T-ALL xenograft cells from relapse)
Experimental: as §1

P1 Relapse = system: P1 Relapse (T-ALL xenograft cells from relapse)
Experimental: as §1

Cc1c(-c2ccc(N3CCc4cccc(C(=O)Nc5nc6ccccc6s5)c4C3)nc2C(=O)O)cnn1CC12CC3CC(CC(C3)C1)C2
normalised number of viable cells
Settings	0.125 nM	0.13 nM	1 nM	1.25 nM	12.5 nM	31.25 nM	100 nM	625 nM	1250 nM	10000 nM
P1 Initial	1.07	–	0.741	–	0.429	–	0.38	–	0.172	0.0585
P1 Relapse	–	1.092	–	1	–	0.758	–	0.443	–	0.104
P2 Initial	–	0.972	–	0.785	–	0.5015	–	0.407	–	0.2125
P2 Relapse	–	0.839	–	0.588	–	0.115	–	0.0705	–	0.0555
P6 Initial	–	0.809	–	0.331	–	0.037	–	0.023	–	0.0205
P6 Relapse	–	0.953	–	0.907	–	0.827	–	0.883	–	0.834
P8 Initial	–	1.17	–	0.883	–	0.704	–	0.673	–	0.4885
P8 Relapse	–	0.838	–	0.861	–	0.721	–	0.515	–	0.321
P10 Initial	–	0.894	–	0.32	–	0.163	–	0.0735	–	0.031
P10 Relapse	–	0.98	–	0.69	–	0.547	–	0.341	–	0.149
P12 Initial	–	0.976	–	0.093	–	0.151	–	0.084	–	0.054
P12 Relapse	–	2.48	–	0.433	–	0.132	–	0.075	–	0.0555
